Assay: Actual dose of vitamin on inkjet-printed areas, immersed in water, by UV/Vis absorbance
Format: physicochemical
Details: for Vitamin B3 dose, measured: 262 nm
Description: Two different ink solutions were used to print the vitamins onto the substrates. […] The solutions were filtered with 0.2 μm polypropylene membrane filter (Whatman, GE Healthcare, Piscataway, N.J., USA) before printing. Inkjet printing was performed with a […] printer (Fujifilm […] Clara, Calif., USA). In the printer, a MEMS-based cartridge-styled printhead with 16 nozzles linearly spaced at 254 μm that produce a nominal drop size of […] was used. Printing was performed in ambient conditions (relative humidity 45.5±5%, 21±1° C.) with a single nozzle using firing voltage of 35 V. The cartridge temperature was 30° C., and the drops were deposited at a drop spacing of 10 μm, 20 μm and 30 μm. The vitamins were printed in squares of 1 cm×1 cm on normal copy paper (n=6) and on multilayer curtain coated paper (n=1). […] Each printed area was immersed into predetermined amount of water and vigorously shaken. […] The calibration curves were done in water, as well.

Row | Vitamin B3 dose, measured (drop spacing 10, 4 h incubation in water, 1 cm x 1 cm printed area, theoretical 0.501 mg) [mg] | Vitamin B3 dose, measured (drop spacing 10, 24 h incubation in water, theoretical 0.501 mg) [mg] | Vitamin B3 dose, measured (drop spacing 20, 4 h incubation in water, 1 cm x 1 cm printed area, theoretical 0.125 mg) [mg] | Vitamin B3 dose, measured (drop spacing 20, 24 h incubation in water, theoretical 0.125 mg) [mg] | Vitamin B3 dose, measured (drop spacing 30, 4 h incubation in water, 1 cm x 1 cm printed area, theoretical 0.056 mg) [mg] | Vitamin B3 dose, measured (drop spacing 30, 24 h incubation in water, theoretical 0.056 mg) [mg] | Vitamin B2 dose, measured (drop spacing 10, 4 h incubation in water, 267 nm, theoretical 0.32 mg) [mg] | Vitamin B2 dose, measured (drop spacing 10, 4 h incubation in water, 373 nm, theoretical 0.32 mg) [mg] | Vitamin B2 dose, measured (drop spacing 10, second set of rows (no time heading printed), 267 nm, theoretical 0.32 mg) [mg] | Vitamin B2 dose, measured (drop spacing 10, second set of rows (no time heading printed), 373 nm, theoretical 0.32 mg) [mg] | Vitamin B2 dose, measured (drop spacing 20, 4 h incubation in water, 267 nm, theoretical 0.08 mg) [mg] | Vitamin B2 dose, measured (drop spacing 20, 4 h incubation in water, 373 nm, theoretical 0.08 mg) [mg] | Vitamin B2 dose, measured (drop spacing 20, second set of rows (no time heading printed), 267 nm, theoretical 0.08 mg) [mg] | Vitamin B2 dose, measured (drop spacing 20, second set of rows (no time heading printed), 373 nm, theoretical 0.08 mg) [mg] | Vitamin B2 dose, measured (drop spacing 30, 4 h incubation in water, 267 nm, theoretical 0.035 mg) [mg] | Vitamin B2 dose, measured (drop spacing 30, 4 h incubation in water, 373 nm, theoretical 0.035 mg) [mg] | Vitamin B2 dose, measured (drop spacing 30, second set of rows (no time heading printed), 267 nm, theoretical 0.035 mg) [mg] | Vitamin B2 dose, measured (drop spacing 30, second set of rows (no time heading printed), 373 nm, theoretical 0.035 mg) [mg] | Compound
1 | 0.7594 | 0.7323 | 0.2213 | 0.2142 | 0.0717 | 0.0687 |  |  |  |  |  |  |  |  |  |  |  |  | O=C(O)c1cccnc1 [Vitamin B3, niacin]
2 |  |  |  |  |  |  | 0.6255 | 0.6459 | 0.5847 | 0.6141 | 0.1337 | 0.1403 | 0.1199 | 0.1276 | 0.0623 | 0.0658 | 0.0521 | 0.0560 | Cc1cc2nc3c(=O)[nH]c(=O)nc-3n(C[C@H](O)[C@H](O)[C@H](O)COP(=O)(O)O)c2cc1C [Vitamin B2, riboflavin sodium phosphate]
